Key:
CBP = CBP (Homo sapiens (Human), UniProt Q92793); assay: Assay of CBP protein activity (HTRF, BRD with acetylated Histone H4 peptide ligand); assay type: binding
Protocol: (§1) Assay Example 1: Assay of p300 and CBP Protein Activity
(§2) Reaction buffer: 25 mM HEPES, pH 7.5, 25 mM NaCl, 0.025% CHAPS, 0.025% BSA, 0.5% DMSO.
(§3) Standard Reaction Conditions:
(§4) 5 nM p300-GST, 50 nM peptide ligand.
(§5) Reaction Procedure: • 1. 2.5×BRD was added to the wells of a reaction plate, except for control wells without BRD to which buffer was added instead. • 2. Compounds in 100% DMSO were delivered into the BRD mixture by acoustic technology (Echo550; nanoliter range). The plate was spun down. The mixture was incubated at room temperature for 30 min. • 3. 5×peptide ligand was delivered. The plate was spun down. The mixture was incubated at room temperature for 10 min. • 4. 5×HTRF detection mixture was delivered. The plate was spun down and the mixture was incubated in the dark for 2 h. • 5. A measurement of HTRF was performed with an Envision reader (Ex/Em=320/615, 665 nm). • 6. A HTRF ratio was calculated as follows: [em 665 nm/em 615 nm]*10000.
(§6) The background-subtracted signal (no protein as background) was converted to % bound relative to the DMSO control. Data were analyzed using GraphPad Prism 4 with “sigmoidal dose-response (variable slope)”; and a 4-parameter analysis was performed using Hill slope.
(§7) Constraints: • Bottom=Constant equal to 0 • Top=Must be less than 120

[1] = Pharmacokinetic study in CD-1 mice (intravenous injection and oral gavage); assay type: in vivo; settings: male CD-1 mice
From the text: Assay Example 2: Pharmacokinetic Study of Compounds of the Present Disclosure
CD-1 mice (male, 5-6 weeks old, Shanghai Family Planning Research Institute)
Injection: To assay pharmacokinetic characteristics of rodents after intravenous injection administration of compounds by a standard protocol. In the assay, candidate compounds were formulated into clear solutions, and administered to mice as a single intravenous injection. The vehicle for the intravenous injection was a mixed vehicle formulated with 5% of dimethyl sulfoxide and 95% of 10% hydroxypropyl β-cyclodextrin. In this assay, two male CD-1 mice were used for intravenous injection administration at a dose of 0.5 mg/kg. Plasma samples were collected at 0.083, 0.25, 0.5, 1, 2, 4, 8 and 24 h after administration. Whole blood samples were collected within 24 hours, and centrifuged at 3000 g for 15 minutes. The supernatants were separated to obtain plasma samples. To the plasma samples was added 20 times volume of acetonitrile solution containing internal standard to precipitate protein. The mixtures were vortexed and centrifuged. The supernatants were taken for injection. Plasma drug concentration was quantitatively analyzed by LC-MS/MS analysis method, and pharmacokinetic parameters (such as clearance (CL), half-life (T1/2), […] (Vdss), area under the drug-time curve (AUC0-last), etc.) were calculated.
Oral: To assay pharmacokinetic characteristics of rodents after oral administration of compounds by a standard protocol. In the assay, candidate compounds were formulated into homogeneous opaque suspensions, and given to the mice for a single oral administration. The vehicle for the oral administration was a mixed vehicle formulated with 5% of dimethyl sulfoxide and 95% of 0.5% methylcellulose. In this assay, two male CD-1 mice were used for oral gavage administration at a dose of 3 mg/kg. Plasma samples were collected at 0.25, 0.5, 1, 2, 4, 8 and 24 h after administration. Whole blood samples were collected within 24 hours, and centrifuged at 3000 g for 15 minutes. The supernatants were separated to obtain plasma samples. To the plasma samples was added 20 times volume of acetonitrile solution containing internal standard to precipitate protein. The mixtures were vortexed and centrifuged. The supernatants were taken for injection. Plasma drug concentration was quantitatively analyzed by LC-MS/MS analysis method, and pharmacokinetic parameters (such as peak concentration (Cmax), half-life (T1/2), area under the drug-time curve (AUC0-last), etc.) were calculated.

p300 = p300 (Homo sapiens (Human), UniProt Q09472); assay: Assay of p300 protein activity (HTRF, p300-GST with Histone H4 (1-21) K5/8/12/16Ac-GG-Biotin peptide ligand); assay type: binding; settings: 5 nM p300-GST, 50 nM peptide ligand
Protocol: as §1, §2, §3, §4, §5, §6, §7

p300, sequence (Q09472 1049-1156): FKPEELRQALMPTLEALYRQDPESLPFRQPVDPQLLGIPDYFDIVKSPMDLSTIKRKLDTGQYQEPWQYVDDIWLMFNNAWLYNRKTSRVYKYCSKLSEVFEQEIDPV
CBP, sequence (Q92793 1085-1192): as the sequence (Q09472 1049-1156) above, with S47N, I73V, Y93F, S98A counted along it

Compound: COC1CCC(n2c([C@@H]3C[C@H]4C[C@H]4C(=O)N3c3ccc(F)c(F)c3)nc3cc(-c4c(C)noc4C)ccc32)CC1 (single isomer, unassigned) [Compound 3B]
- IC50 (CBP): 0.67 nM
- Bioavailability F (%) ([1]; gavage 3 mg/kg vs intravenous 0.5 mg/kg): 64%
- Area under curve (0-inf) AUC0-inf ([1]; gavage, 3 mg/kg): 2.606 µM·h
- Area under curve (0-t) AUC0-last ([1]; gavage, 3 mg/kg): 2.577 µM·h
- Time to peak Tmax ([1]; gavage, 3 mg/kg): 45 min
- half-life T1/2 ([1]; gavage, 3 mg/kg): 67.2 min
- Cmax ([1]; gavage, 3 mg/kg, read-out: Plasma drug concentration Cmax): 697 nM
- Apparent distribution volume Vdss ([1]; intravenous, 0.5 mg/kg): 1.65 L/kg
- Area under curve (0-inf) AUC0-inf ([1]; intravenous, 0.5 mg/kg): 0.676 µM·h
- Area under curve (0-t) AUC0-last ([1]; intravenous, 0.5 mg/kg): 0.665 µM·h
- Clearance Cl ([1]; intravenous, 0.5 mg/kg): 23.3 mL/min/kg
- half-life T1/2 ([1]; intravenous, 0.5 mg/kg): 59.4 min
- IC50 (p300): 2.88 nM

Compound: COC1CCC(n2c([C@H]3C[C@@H]4C[C@@H]4C(=O)N3c3ccc(F)c(F)c3)nc3cc(-c4c(C)noc4C)ccc32)CC1 (single isomer, unassigned) [Compound 3C]
- IC50 (p300): 14.1 nM

Compound: Cc1noc(C)c1-c1ccc2c(c1)nc([C@H]1CCCC(=O)N1c1ccc(F)c(F)c1)n2C1CC2C(C1)C2(F)F (some centres unmarked) [Compound 2B]
- IC50 (CBP): 0.67 nM
- IC50 (p300): 3.54 nM

Compound: COC1CCC(n2c([C@@H]3CN(C)C(=O)N3c3ccc(F)c(F)c3)nc3cc(-c4c(C)noc4C)ccc32)CC1 (some centres unmarked) [Compound 4A]
- IC50 (p300): 11.3 nM

— US20240109879A1, “BENZIMIDAZOLE COMPOUND AND APPLICATION THEREOF” (Medshine Discovery Inc., priority 2020, published 2024)
